Measured values: paper PMC9416257, “Design, Synthesis and Preliminary Evaluation of the Cytotoxicity and Antibacterial Activity of Novel Triphenylphosphonium Derivatives of Betulin” (Molecules, 2022)
Read-outs that look alike come from different tables or passages of the source.

Assays:
[1] = tested on: Escherichia coli ATCC 25922; assay: Antibacterial assay, optical density of culture in TSB; assay type: cell-based; settings: 37 °C, 18 h; note: key: 0: no difference between samples after 18 h of bacteria culture (bacteria grow was inhibited); neg: negative results (analog BN did not inhibit bacteria growing)
Description: (§1) Investigations were carried out using different concentrations of solutions from 25 to 250 µM. A 25 µM concentration of the tested derivatives was not enough to inhibit the growth of […]. When the concentration of analogs 7d–7f and 9a–9c increased to 200 µM, the growth of S. aureus ATCC 25923 and S. epidermidis ATCC 12228 was inhibited. Furthermore, the optical density of all compounds remained unchanged after 18 h of bacteria culture. In the case of analogs 7a–7c, the optical density values were between 0.9 and 2.2 when they were cultured with S. aureus ATCC 25923. The bacterial growth was slower compared to the control sample (TSB-culture medium). […] In the case of analog 7c, the optical density increased up to […] after 18 h of the sample culture with both kinds of Gram-positive bacteria. In contrast, the reference sample’s (TSB) optical density increased to 7.5 for S. aureus ATCC 25923, and 4.9 for S. epidermidis ATCC 12228 after 18 h of bacteria culture. […] All of the analog values of the measured optical density were similar to that of the reference sample (5.0–5.1, Table 3).
(§2) Antibacterial analysis was performed using the S. aureus ATCC 25923, S. epidermidis ATCC 12228, and Escherichia coli ATCC 25922 bacteria strains. The test compounds were dissolved in DMSO to obtain a stock solution with a concentration of 5 mM (betulin) or 10 mM (other test compounds). The stock solution was diluted with water to the desired concentration (25–250 µM). Then, 1 mL of the investigated solutions was mixed with 1 mL of culture medium (TSB, Biomaxima, Lublin, Poland) in a sterile glass tube. The initial concentration of bacteria was around 5 × 10^6 CFU/mL. The concentration of bacteria was measured using an optical densitometer before and after 18 h of bacteria culture in glass tubes at 37 °C (incubator POL-EKO, Wodzislaw Slaski, Poland). The investigations were repeated for three independent samples. The control sample was the culture medium without any supplementation.

[2] = tested on: S. epidermidis ATCC 12228; assay: as above; assay type: cell-based, Staphylococcus epidermidis; settings: 18 h; for Difference between optical density before and after culture, S. epidermidis ATCC 12228: 37 °C
Description: as §1, §2

[3] = tested on: NHDF (Normal Human Dermal Fibroblast cells); assay: Cytotoxicity, CCK-8 cell viability assay (safety on normal cells); assay type: cell-based; settings: read-out: Activity IC50, NHDF
Description: (§3) The obtained new molecular hybrids of BN were screened in order to initially investigate their cytotoxicity as well as examine the relationships between the structure and biological effect. The common element of all of the tested compounds was the presence of a lipophilic moiety (CH2)nTPP^⊕ (n = 3, 4, 5). The research was conducted on two groups of compounds: 28-TPP^⊕ BN and 3,28-bisTPP^⊕ BN. Their cytotoxicity was investigated on two cancer cell lines: HCT 116 (colorectal carcinoma cell line) and MCF-7 (human breast adenocarcinoma cell line). The proliferation of tumor cells treated with the tested compounds (7 and 9) at 12.5–3.125 µM concentrations were determined after 24 h of incubation. Additionally, all compounds were tested against the NHDF cell line (Normal Human Dermal Fibroblast cells) to assess their safety. Half-maximal inhibitory concentrations (IC50) of triphenylphosphonium analogs of BN were determined using a CCK-8 assay and are summarized in Table 2.
(§4) The human colorectal carcinoma cell line (HCT 116) and the human breast adenocarcinoma cell line (MCF-7) cells were purchased from the American Type Culture Collection (ATCC, Manassas, VA, USA). The Normal Human Dermal Fibroblast (NHDF) cells were purchased from Lonza (Dermal Fibroblasts, Lonza, Poland). All cells were cultured under standard conditions at 37 °C in a humidified atmosphere at 5% CO2 in DMEM/F12 medium (PAA) supplemented with 10% of heat-inactivated fetal bovine serum (FBS, EURx, Gdansk, Poland) and antibiotics (penicillin/streptomycin).
(§5) Cells were seeded at 7500 (HCT 116) or 10,000 (MCF-7, NHDF) cells/well in 96-well plates. After 24 h, the culture medium was removed and 100 µL of fresh medium containing the test compounds at 0–12.5 µM concentrations was added to the culture wells. The test compounds were dissolved in DMSO to obtain a stock solution with a concentration of 5 mM (betulin) or 10 mM (other test compounds). The stock solution was diluted with the fresh culture medium to the desired concentration. Controls were cells grown in medium without the addition of test compounds. After 24 h of incubation with the test compounds, 10 µL of CCK-8 reagent (Bimake, Houston, TX, USA) was added to each well. After 2 h, the absorbance of the samples was measured at a wavelength of 450 nm using a microplate reader (Epoch, BioTek Instruments, Winooski, VT, USA). The determinations were conducted in at least three biological replications (each biological replication contained 3 technical replications). The cell viability rate was calculated using CalcuSyn software (version 2.0, Biosoft, Cambridge, UK).

S. aureus ATCC 25923 = assay: Antibacterial assay, optical density of culture in TSB; assay type: cell-based, Staphylococcus aureus; settings: 18 h; for Difference between optical density before and after culture, S. aureus ATCC 25923: 37 °C
Description: as §1, §2

[4] = tested on: HCT 116 (colorectal carcinoma cell line); assay: Cytotoxicity, CCK-8 cell viability assay; assay type: cell-based; settings: Homo sapiens, read-out: Activity IC50, HCT 116
Description: as §3, §4, §5

[5] = tested on: MCF-7 (human breast adenocarcinoma cell line); assay: Cytotoxicity, CCK-8 cell viability assay; assay type: cell-based; settings: read-out: Activity IC50, MCF-7
Description: as §3, §4
as §5, with “After 24 h, the culture medium was removed and 100 µL of fresh medium containing the test compounds at 0–12.5 µM concentrations was added to the culture wells.” left out

C=C(C)[C@@H]1CC[C@]2(COC(=O)CCC(=O)OCCCC[P+](c3ccccc3)(c3ccccc3)c3ccccc3)CC[C@]3(C)C(CCC4[C@@]5(C)CC[C@H](OC(C)=O)C(C)(C)C5CC[C@]43C)C12 (some centres unmarked) [7b, 3-O-Acetyl-28-O’-(3’-(4"-triphenylphosphoniobutyloxycarbonyl)propanoyl)betulin bromide]
Difference between optical density before and after culture, Escherichia coli ATCC 25922 ([1]; 200 μM): neg | Difference between optical density before and after culture, Escherichia coli ATCC 25922 ([1]; 250 μM): neg | Difference between optical density before and after culture, S. epidermidis ATCC 12228 ([2]; 200 μM): neg | Difference between optical density before and after culture, S. epidermidis ATCC 12228 ([2]; 250 μM): 0 | Inhibition of growth of S. epidermidis ATCC 12228 (in words) ([2]; 250 µM): greatly inhibited the growth | IC50 ([3]; CCK-8 assay, incubation time 24 h, mean ± SD (n = 3)): 10.7 ± 0.25 µM | Difference between optical density before and after culture, S. aureus ATCC 25923 (S. aureus ATCC 25923; 200 μM): 2.2 McFarland’s scale (CFU/mL) | Difference between optical density before and after culture, S. aureus ATCC 25923 (S. aureus ATCC 25923; 250 μM): 0 | Inhibition of growth of S. aureus ATCC 25923 (in words) (S. aureus ATCC 25923; 250 µM): greatly inhibited the growth | IC50 ([4]; HCT-116, CCK-8 assay, incubation time 24 h, mean ± SD (n = 3)): 5.77 ± 0.27 µM | IC50 ([5]; MCF7, CCK-8 assay, incubation time 24 h, mean ± SD (n = 3)): 14.3 ± 0.38 µM

C=C(C)[C@@H]1CC[C@]2(COC(=O)CCC(=O)OCCC[P+](c3ccccc3)(c3ccccc3)c3ccccc3)CC[C@]3(C)C(CCC4[C@@]5(C)CC[C@H](OC(=O)CCC(=O)OCCC[P+](c6ccccc6)(c6ccccc6)c6ccccc6)C(C)(C)C5CC[C@]43C)C12 (some centres unmarked) [9a, 3,28-O,O′-Bis(3’-(3"-triphenylphosphoniopropyloxycarbonyl)propanoyl)betulin bromide]
Difference between optical density before and after culture, Escherichia coli ATCC 25922 ([1]; 200 μM): neg | Difference between optical density before and after culture, Escherichia coli ATCC 25922 ([1]; 250 μM): neg | Difference between optical density before and after culture, S. epidermidis ATCC 12228 ([2]; 200 μM): 0 | Difference between optical density before and after culture, S. epidermidis ATCC 12228 ([2]; 250 μM): 0 | IC50 ([3]; 24 h): 5.91 ± 0.33 µM | Difference between optical density before and after culture, S. aureus ATCC 25923 (S. aureus ATCC 25923; 200 μM): 0 | Difference between optical density before and after culture, S. aureus ATCC 25923 (S. aureus ATCC 25923; 250 μM): 0 | IC50 ([4]; HCT-116, 24 h): 6.32 ± 0.27 µM | IC50 ([5]; MCF7, 24 h): 31.3 ± 3.02 µM

C=C(C)[C@@H]1CC[C@]2(COC(=O)CCC(=O)OCCCCC[P+](c3ccccc3)(c3ccccc3)c3ccccc3)CC[C@]3(C)C(CCC4[C@@]5(C)CC[C@H](OC(=O)CCC(=O)OCCCCC[P+](c6ccccc6)(c6ccccc6)c6ccccc6)C(C)(C)C5CC[C@]43C)C12 (some centres unmarked) [9c, 3,28-O,O′-Bis(3’-(5"-triphenylphosphoniopentyloxycarbonyl)propanoyl)betulin bromide]
Difference between optical density before and after culture, Escherichia coli ATCC 25922 ([1]; 200 μM): neg | Difference between optical density before and after culture, Escherichia coli ATCC 25922 ([1]; 250 μM): neg | Difference between optical density before and after culture, S. epidermidis ATCC 12228 ([2]; 200 μM): 0 | Difference between optical density before and after culture, S. epidermidis ATCC 12228 ([2]; 250 μM): 0 | IC50 ([3]; 24 h): 10.6 ± 0.34 µM | Difference between optical density before and after culture, S. aureus ATCC 25923 (S. aureus ATCC 25923; 200 μM): 0 | Difference between optical density before and after culture, S. aureus ATCC 25923 (S. aureus ATCC 25923; 250 μM): 0 | IC50 ([4]; HCT-116, 24 h): 19 ± 0.51 µM | IC50 ([5]; MCF7, 24 h): 53.3 ± 5.41 µM
